Measured values from patent US7393824B1, “Methods of peptide preparation” (Lytix Biopharma, priority 2000, dated 2008).
Where two headings read alike, the source gives them in different places. Residues, ends and D or L forms follow the SMILES beside them.

Columns and labels:
Format in all cases: cell-based
human red blood cells = assay: Hemolytic assay
Protocol: The hemolytic activities of the peptides were determined using fresh human red blood cells. 8 ml blood was taken from a healthy person. 4 ml blood was transferred to a polycarbonate tube containing heparin to a final concentration of 10 U/ml, and the remaining 4 ml blood was transferred to a glass tube containing EDTA with final concentration of 15% EDTA. The erythrocytes were isolated from heparin-treated blood by centrifugation in 1500 rpm for 10 min and washed three times with phosphate-buffered saline (PBS) to remove plasma and buffy coat. The cell pellet was resuspended in PBS to make the final volume of 4 ml. The peptide was diluted to a concentration of 2 mg/ml and 0.1 mg/ml. The peptide was further diluted to the concentrations as stated in Table 1. For each tube PBS was added first, then RBCs and peptide solutions. The hematocrit in the blood treated with EDTA was determined after 30 min with Sysmex K-1000, and the resuspended RBCs were diluted into 10% hematocrit. RBCs in PBS (1%) with and without peptides (Table 18) were incubated in a shaker at […] for 1 hour and then centrifuged at 4000 rpm for 5 min. The supernatant were carefully transferred to new polycarbonate tubes and the absorbance of the supernatant was measured at 540 nm. Baseline hemolysis was hemoglobin released in the presence of PBS, and 100% hemolysis was hemoglobin released in the presence of 0.1% Triton X-100.

[1] = tested on: Meth A murine sarcoma cell line
Protocol: Peptide solutions (0.1 ml) were added and the plates incubated at 37° C. for 30 minutes, 4 hours or 24 hours. The cytotoxicity was measured using the MTT method (Mosmann et al., J. Immunol. (1986) 136, 2348-2357).

[2] = tested on: MRC-5 cells (normal fibroblasts); assay: Fibroblast assay (MTT)
Protocol: The cells were washed with PBS and then trypsinated using 2 ml trypsin (for a 80 cm culture flask). After the cells had detached from the wall, usually after ca 3 min. of incubation, 5 ml medium with FBS were added. The cells were resuspended and counted. The cells were then transferred to a centrifugation tube and spinned at 1500 rpm for 10 min. The supernatant was removed and the cells resuspended to a concentration of 1×10^5 cells/ml. 100 ul cells suspension was transferred to each well in a 96-well microtiter plate and incubated for 25 hours to allow the cells to attach. Following the incubation, the medium containing serum was removed by turning the plate upside down against a piece of tissue. 100 ul medium without serum and L-glutamine (assay medium) was added to each well, and then removed as before. This was done to remove any trace of serum. […] The rest of the assay was done as previously described for methA, except that after the 2 hour incubation following MTT addition, 80 ul medium instead of 130 ul were removed.

[3] = tested on: Escherichia coli ATCC 25922; details: Table 2
Protocol: The bacterial strains used were: Escherichia coli ATCC 25922 and Staphylococcus aureus ATCC 25923. All strains were stored at −70° C. The bacteria were grown in 2% Bacto Peptone water (Difco 1807-17-4). All tests were performed with bacteria in mid-logarithmic growth phase. Determination of the minimum inhibitory concentration (MIC) of the peptides for bacterial strains were performed in 1% Bacto Peptone water. A standard microdilution technique with an inoculum of 2×10^6 CFU/ml was used. All assays were performed in triplets. Since the peptides are positively charged and therefore could adhere to the plastic wells, we controlled the actual concentration of the peptides in the solution by HPLC. There was no difference between the concentration of the peptides before or after adding the solution to the plastic wells.

[4] = Table 3, unit inferred, read-out: RBC EC50
[5] = Table 3, unit inferred, read-out: Meth A IC50
[6] = Table 3, unit inferred, read-out: Fib IC50

IC50 [1, 5] | Compound | EC50 (human red blood cells; [4]) | IC50 [2, 6] | also measured
147 µM | (KAAKKAA)3 W6,10,17 [KA 31] | > 422 µM | > 422 µM | –
28 µM | (KAAKKAA)3 W7,9,16 [KA 32] | > 422 µM | > 422 µM | –

The next lines start with the compound.

Compound | IC50 [1, 5] | EC50 (human red blood cells; [4]) | IC50 [2, 6] | also measured
(KAAKKAA)3 W2,3,20,21 [KA19] | 19 µM | > 402 µM | 374 µM | –
KKWAKKAWKWAKKAW [KA22, 15-mer] | 30 µM | > 514 µM | > 514 µM | –
(KAAKKAA)3 W2,9,16 [KA 5] | 15 µM | > 422 µM | 302 µM | –
(KAAKKAA)3 W7,10,17 [KA23] | 110 µM | > 422 µM | > 422 µM | –
(KAAKKAA)3 W2,3,20 [KA15] | 16 µM | > 422 µM | 246 µM | –
C[C@H](NC(=O)[C@H](C)NC(=O)[C@H](CCCCN)NC(=O)[C@H](Cc1c[nH]c2ccccc12)NC(=O)[C@H](C)NC(=O)[C@H](CCCCN)NC(=O)[C@H](CCCCN)NC(=O)[C@H](C)NC(=O)[C@H](C)NC(=O)[C@@H](N)CCCCN)C(=O)N[C@@H](CCCCN)C(=O)N[C@@H](CCCCN)C(=O)N[C@@H](C)C(=O)N[C@@H](C)C(=O)N[C@@H](CCCCN)C(=O)N[C@@H](Cc1c[nH]c2ccccc12)C(=O)N[C@@H](C)C(=O)N[C@@H](CCCCN)C(=O)O [KA W7,16] (H-KAAKKAWKAAKKAAKWAK-OH; N-terminus and C-terminus assumed) | – | – | – | EC50 (human red blood cells; red cells of human): > 444 µM; IC50 ([1]; 4 h): > 222 µM; IC50 [2]: > 222 µM
(KAAKKAA)3 Bip9,16 [KA27] | 24 µM | > 429 µM | > 429 µM | –
(KAAKKAA)3 W7,9,14,16 [KA 4] | 5 µM | > 402 µM | 30 µM | –
(KAAKKAA)3 W7,16,17 [KA24] | 29 µM | > 422 µM | > 422 µM | –
(KAAKKAA)3 F2,9,16,20 [KA17] | 37 µM | > 429 µM | > 429 µM | –
C[C@H](NC(=O)[C@H](C)NC(=O)[C@H](CCCCN)NC(=O)[C@H](CCCCN)NC(=O)[C@H](C)NC(=O)[C@H](Cc1c[nH]c2ccccc12)NC(=O)[C@H](CCCCN)NC(=O)[C@H](Cc1c[nH]c2ccccc12)NC(=O)[C@H](C)NC(=O)[C@H](CCCCN)NC(=O)[C@H](CCCCN)NC(=O)[C@H](C)NC(=O)[C@H](C)NC(=O)[C@@H](N)CCCCN)C(=O)N[C@@H](CCCCN)C(=O)N[C@@H](Cc1c[nH]c2ccccc12)C(=O)N[C@@H](C)C(=O)N[C@@H](CCCCN)C(=O)O [KA 18W7,9,16] (H-KAAKKAWKWAKKAAKWAK-OH; N-terminus and C-terminus assumed) | – | – | – | EC50 (human red blood cells; red cells of human): > 422 µM; IC50 ([1]; 4 h): 32 µM; IC50 [2]: > 211 µM
C[C@H](NC(=O)[C@H](C)NC(=O)[C@H](CCCCN)NC(=O)[C@H](C)NC(=O)[C@H](C)NC(=O)[C@H](CCCCN)NC(=O)[C@H](CCCCN)NC(=O)[C@H](Cc1c[nH]c2ccccc12)NC(=O)[C@H](C)NC(=O)[C@H](CCCCN)NC(=O)[C@H](C)NC(=O)[C@H](C)NC(=O)[C@H](CCCCN)NC(=O)[C@H](CCCCN)NC(=O)[C@H](C)NC(=O)[C@H](C)NC(=O)[C@@H](N)CCCCN)C(=O)N[C@@H](CCCCN)C(=O)O [KA 18W10] (H-KAAKKAAKAWKKAAKAAK-OH; N-terminus and C-terminus assumed) | – | – | – | EC50 (human red blood cells; red cells of human): > 467 µM; IC50 ([1]; 4 h): > 234 µM; IC50 [2]: > 234 µM
(KAAKKAA)3 W2,9,16,20 [KA 8] | 4 µM | > 402 µM | 23 µM | –
C[C@H](NC(=O)[C@H](C)NC(=O)[C@H](CCCCN)NC(=O)[C@H](CCCCN)NC(=O)[C@H](C)NC(=O)[C@H](C)NC(=O)[C@@H](N)CCCCN)C(=O)N[C@@H](CCCCN)C(=O)N[C@@H](C)C(=O)N[C@@H](C)C(=O)N[C@@H](CCCCN)C(=O)N[C@@H](CCCCN)C(=O)N[C@@H](C)C(=O)N[C@@H](C)C(=O)N[C@@H](CCCCN)C(=O)N[C@@H](Cc1c[nH]c2ccccc12)C(=O)N[C@@H](C)C(=O)N[C@@H](CCCCN)C(=O)O [KA 18W16] (H-KAAKKAAKAAKKAAKWAK-OH; N-terminus and C-terminus assumed) | – | – | – | EC50 (human red blood cells; red cells of human): > 467 µM; IC50 ([1]; 4 h): > 234 µM; IC50 [2]: > 234 µM
WKWAKKAWKWAKKAA [KA21, 15-mer] | 32 µM | > 530 µM | > 530 µM | –
CSCC[C@H](NC(=O)[C@H](CCCNC(=N)N)NC(=O)[C@H](Cc1c[nH]c2ccccc12)NC(=O)[C@H](C)NC(=O)[C@H](Cc1c[nH]c2ccccc12)NC(=O)[C@H](CCCNC(=N)N)NC(=O)[C@H](Cc1ccccc1)NC(=O)[C@H](C)NC(=O)[C@H](CCCCN)NC(=O)[C@H](CCCNC(=N)N)NC(=O)[C@H](Cc1c[nH]c2ccccc12)NC(=O)[C@H](C)NC(=O)[C@@H]1CCCN1)C(=O)N[C@@H](CC(C)C)C(=O)N[C@@H](CCCCN)C(=O)N[C@@H](CCCCN)C(=O)N[C@@H](C)C(=O)N[C@@H](C)C(=O)O [LFB (14-31)m, PAWRKAFRWAWRMLKKAA] (H-PAWRKAFRWAWRMLKKAA-OH) | – | – | – | toxicity to fibroblasts [2]: highly toxic to fibroblasts
(OAAOOAA)3 W7,9,14,16 [KA14] | 5 µM | > 424 µM | 60 µM | –
WKWAKKAAKWAWKAA [KA20, 15-mer] | 140 µM | > 546 µM | 307 µM | –
(KAAKKAA)3 W9,16 [KA 7] | > 222 µM | > 444 µM | > 444 µM | –
KKAWKWAKKAWKWAKKA [KA18] | 8 µM | > 451 µM | 115 µM | –
CC[C@H](C)[C@H](NC(=O)[C@H](C)NC(=O)[C@H](Cc1c[nH]c2ccccc12)NC(=O)[C@H](CCCNC(=N)N)NC(=O)[C@H](Cc1ccccc1)NC(=O)[C@H](C)NC(=O)[C@H](CCCCN)NC(=O)[C@H](CCCNC(=N)N)NC(=O)[C@H](Cc1c[nH]c2ccccc12)NC(=O)[C@H](C)NC(=O)[C@@H]1CCCN1)C(=O)N[C@@H](CCCNC(=N)N)C(=O)N[C@@H](CCSC)C(=O)N[C@@H](CC(C)C)C(=O)N[C@@H](CCCCN)C(=O)N[C@@H](CCCCN)C(=O)N[C@@H](C)C(=O)N[C@@H](C)C(=O)O [W11→I11] (H-PAWRKAFRWAIRMLKKAA-OH; N-terminus and C-terminus assumed) | – | – | – | EC50 (human red blood cells; red cells of human): 63.6 µM; IC50 ([1]; 4 h): 6 µM; Mic E-coli [3]: ⅖
CC[C@H](C)[C@H](NC(=O)[C@H](CCCNC(=N)N)NC(=O)[C@H](Cc1ccccc1)NC(=O)[C@H](C)NC(=O)[C@H](CCCCN)NC(=O)[C@H](CCCNC(=N)N)NC(=O)[C@H](Cc1c[nH]c2ccccc12)NC(=O)[C@H](C)NC(=O)[C@@H]1CCCN1)C(=O)N[C@@H](C)C(=O)N[C@@H](Cc1c[nH]c2ccccc12)C(=O)N[C@@H](CCCNC(=N)N)C(=O)N[C@@H](CCSC)C(=O)N[C@@H](CC(C)C)C(=O)N[C@@H](CCCCN)C(=O)N[C@@H](CCCCN)C(=O)N[C@@H](C)C(=O)N[C@@H](C)C(=O)O [W9→I9] (H-PAWRKAFRIAWRMLKKAA-OH; N-terminus and C-terminus assumed) | – | – | – | EC50 (human red blood cells; red cells of human): 155 µM
C[C@H](NC(=O)[C@H](C)NC(=O)[C@H](CCCCN)NC(=O)[C@H](CCCCN)NC(=O)[C@H](Cc1c[nH]c2ccccc12)NC(=O)[C@H](C)NC(=O)[C@H](CCCCN)NC(=O)[C@H](C)NC(=O)[C@H](Cc1c[nH]c2ccccc12)NC(=O)[C@H](CCCCN)NC(=O)[C@H](CCCCN)NC(=O)[C@H](C)NC(=O)[C@H](C)NC(=O)[C@@H](N)CCCCN)C(=O)N[C@@H](CCCCN)C(=O)N[C@@H](C)C(=O)N[C@@H](Cc1c[nH]c2ccccc12)C(=O)N[C@@H](CCCCN)C(=O)O [KA 18W6,10,17] (H-KAAKKWAKAWKKAAKAWK-OH; N-terminus and C-terminus assumed) | – | – | – | EC50 (human red blood cells; red cells of human): > 422 µM; IC50 ([1]; Table 1, KA18 peptides, read-out: IC50 Meth A): ≥ 211 µM; IC50 [2]: > 211 µM
